In PMC11239673, “Structural basis for the bi-specificity of USP25 and USP28 inhibitors” (EMBO Reports, 2024):
Residue numbers refer to the chain shown, from its start. Several values for one entry are separate records, joined by “and”; a condition that tells them apart may be missing. Equal values may be shown once. Read-outs that look alike come from different tables or passages of the source.

Assays:
Type in all cases: biochemical
USP28Δtip WT = biological target: T1, USP28Δtip WT (Homo sapiens, UniProt Q96RU2, INS458SGSG); test: Ub-Rho110 dose–response assay, USP28Δtip wt
T1 sequence (Q96RU2 with tags, fused parts or gaps INS458SGSG): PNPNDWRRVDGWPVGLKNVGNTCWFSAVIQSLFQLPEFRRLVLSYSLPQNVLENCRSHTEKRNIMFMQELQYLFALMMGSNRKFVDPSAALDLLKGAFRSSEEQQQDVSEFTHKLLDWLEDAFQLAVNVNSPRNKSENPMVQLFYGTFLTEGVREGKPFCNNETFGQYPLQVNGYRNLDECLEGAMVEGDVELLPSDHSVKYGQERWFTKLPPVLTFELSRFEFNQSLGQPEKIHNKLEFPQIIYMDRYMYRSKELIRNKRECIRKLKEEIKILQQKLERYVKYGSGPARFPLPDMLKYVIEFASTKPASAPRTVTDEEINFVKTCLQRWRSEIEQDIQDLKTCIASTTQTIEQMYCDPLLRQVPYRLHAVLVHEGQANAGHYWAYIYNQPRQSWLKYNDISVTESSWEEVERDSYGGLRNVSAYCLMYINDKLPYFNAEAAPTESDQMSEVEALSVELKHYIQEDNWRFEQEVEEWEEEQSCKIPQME

USP28Δtip L264F = biological target: T2, USP28Δtip L264F (Homo sapiens, UniProt Q96RU2, INS458SGSG/L264F); test: Ub-Rho110 dose–response assay, USP28Δtip L264F; conditions: for IC50: USP28 - L264F
T2 sequence (Q96RU2 with tags, fused parts or gaps L264F/INS458SGSG): T1 sequence (Q96RU2 with tags, fused parts or gaps INS458SGSG)

USP28Δtip E366Q = biological target: T3, USP28Δtip E366Q (Homo sapiens, UniProt Q96RU2, E366Q/INS458SGSG); test: Ub-Rho110 dose–response assay, USP28Δtip E366Q; conditions: for IC50: USP28 - E366Q
T3 sequence (Q96RU2 with tags, fused parts or gaps E366Q/INS458SGSG): T1 sequence (Q96RU2 with tags, fused parts or gaps INS458SGSG)

USP25Δtip WT = biological target: T4, USP25Δtip WT (Homo sapiens, UniProt Q9UHP3, A536G/DEL465-477/DEL482-535/P478G/P537S); test: Ub-Rho110 dose–response assay, USP25Δtip wt; conditions: single replicates
T4 construct: 6xHis or thioredoxin-6xHis (N, cleaved yes); made in house; host or cells: E. coli BL21star (DE3)
T4 sequence (Q9UHP3 with tags, fused parts or gaps DEL465-477/P478G/DEL482-535/A536G/P537S limits assumed): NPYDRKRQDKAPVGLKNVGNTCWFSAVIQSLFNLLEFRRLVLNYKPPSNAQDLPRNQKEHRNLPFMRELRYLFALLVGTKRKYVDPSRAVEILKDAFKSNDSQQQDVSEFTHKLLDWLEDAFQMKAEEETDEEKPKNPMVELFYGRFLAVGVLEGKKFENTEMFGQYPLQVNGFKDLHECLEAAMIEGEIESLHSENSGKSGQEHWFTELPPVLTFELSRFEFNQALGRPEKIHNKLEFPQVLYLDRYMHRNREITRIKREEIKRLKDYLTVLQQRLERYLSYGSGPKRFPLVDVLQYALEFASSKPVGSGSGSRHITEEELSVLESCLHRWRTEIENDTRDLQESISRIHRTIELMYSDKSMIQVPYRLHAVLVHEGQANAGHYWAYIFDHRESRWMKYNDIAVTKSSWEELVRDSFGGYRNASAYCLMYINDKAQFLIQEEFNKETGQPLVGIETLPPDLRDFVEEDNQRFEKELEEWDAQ

USP25Δtip H268A = biological target: T5, USP25Δtip H268A (Homo sapiens, UniProt Q9UHP3, DEL465-537/H268A/INS464GSGSGS); test: Ub-Rho110 dose–response assay, USP25Δtip H268A
T5 construct: 6xHis or thioredoxin-6xHis (N, cleaved yes); made in house; host or cells: E. coli BL21star (DE3)
T5 sequence (Q9UHP3 with tags, fused parts or gaps H268A/DEL465-477/P478G/DEL482-535/A536G/P537S limits assumed): T4 sequence (Q9UHP3 with tags, fused parts or gaps DEL465-477/P478G/DEL482-535/A536G/P537S limits assumed) with H112A

USP25Δtip Q322A = biological target: T6, USP25Δtip Q322A (Homo sapiens, UniProt Q9UHP3, DEL465-537/INS464GSGSGS/Q322A); test: Ub-Rho110 dose–response assay, USP25Δtip Q322A
T6 construct: 6xHis or thioredoxin-6xHis (N, cleaved yes); made in house; host or cells: E. coli BL21star (DE3)
T6 sequence (Q9UHP3 with tags, fused parts or gaps Q322A/DEL465-477/P478G/DEL482-535/A536G/P537S limits assumed): T4 sequence (Q9UHP3 with tags, fused parts or gaps DEL465-477/P478G/DEL482-535/A536G/P537S limits assumed) with Q166A

[1] = read-out: relative inhibition [%] - USP28 - WT
[2] = mean of replicates, read-out: IC50, mean and SD
[3] = single replicates, read-out: IC50 of each replicate curve (unlabelled line above mean and SD)
[4] = read-out: relative inhibition [%] - USP28 - L264F
[5] = read-out: relative inhibition [%] - USP28 - E366Q

Cc1ccc2c(N)c(C(=O)NC3CCc4cc(N5CC6CCC(C5)N6)ccc4C3)sc2n1 (stereo not drawn) [FT206]
IC50 (USP28Δtip WT; USP28 - WT, single replicates, read-out: IC50 of each replicate curve (unlabelled line above mean and SD)): 184 nM and 209 nM and 213 nM and 88.9 nM and 91.1 nM and 101 nM
IC50 (USP28Δtip WT; USP28Δtip 20 nM, Ub-Rho110 250 nM, 15 min preincubation, average ± SD, n ≥ 5, read-out: IC50, USP28 variants, WT): 150 ± 60 nM
inhibition at 11.11 µM (USP28Δtip WT; [1]): 98.6%
inhibition at 33.33 µM (USP28Δtip WT; [1]): 99.3%
inhibition at 100 µM (USP28Δtip WT; [1]): 99.6%
inhibition at […] (USP28Δtip WT; [1]): 97.5% and 91.4% and 73.1%
t-test vs. USP28 WT control - L264F (USP28Δtip L264F): 2.664E-04
IC50 (USP28Δtip L264F; [2]): 1270 nM
IC50 (USP28Δtip L264F; [3]): 1620 nM and 1310 nM and 1610 nM and 793 nM and 1120 nM and 1150 nM
inhibition at 11.11 µM (USP28Δtip L264F; [4]): 90.1%
inhibition at 33.33 µM (USP28Δtip L264F; [4]): 95.6%
inhibition at 100 µM (USP28Δtip L264F; [4]): 97.8%
inhibition at […] (USP28Δtip L264F; [4]): 74.2% and 44.5%
t-test vs. USP28 WT control - E366Q (USP28Δtip E366Q): 3.570E-04
IC50 (USP28Δtip E366Q; [2]): 17200 nM
IC50 (USP28Δtip E366Q; [3]): 21300 nM and 17600 nM and 14700 nM and 24400 nM and 11500 nM and 13700 nM
inhibition at 11.11 µM (USP28Δtip E366Q; [5]): 34.7%
inhibition at 33.33 µM (USP28Δtip E366Q; [5]): 57.1%
inhibition at 100 µM (USP28Δtip E366Q; [5]): 78.7%
inhibition at 11.11 µM (USP25Δtip WT; read-out: relative inhibition [%] - USP25 - WT, inhibitor 11.11 µM): 91.9%
inhibition at 33.33 µM (USP25Δtip WT; read-out: relative inhibition [%] - USP25 - WT, inhibitor 33.33 µM): 99%
inhibition at 100 µM (USP25Δtip WT; read-out: relative inhibition [%] - USP25 - WT, inhibitor 100.00 µM): 100%
t-test vs. USP25 WT control - H268A (USP25Δtip H268A; p value, inhibitor IC50 on USP25 H268A compared with USP25 WT): 1.749E-05
inhibition at 11.11 µM (USP25Δtip H268A; read-out: relative inhibition [%] - USP25 - H268A): 29.7%
inhibition at 33.33 µM (USP25Δtip H268A; read-out: relative inhibition [%] - USP25 - H268A, inhibitor 33.33 µM, single replicates): 55.5%
inhibition at 100 µM (USP25Δtip H268A; read-out: relative inhibition [%] - USP25 - H268A, inhibitor 100.00 µM, single replicates): 78.2%
inhibition at 100 µM (USP25Δtip Q322A; inhibitor 100.00 µM, single replicates, read-out: relative inhibition [%] - USP25 - Q322A): 94%
t-test vs. USP25 WT control - Q322A (USP25Δtip Q322A; p value, inhibitor IC50 on USP25 Q322A compared with USP25 WT): 8.787E-03
inhibition at 11.11 µM (USP25Δtip Q322A; read-out: relative inhibition [%] - USP25 - Q322A, inhibitor 11.11 µM, single replicates): 85.2%
inhibition at 33.33 µM (USP25Δtip Q322A; read-out: relative inhibition [%] - USP25 - Q322A, inhibitor 33.33 µM, single replicates): 88.7%
